According to patent US20130310454A1, “PHARMACEUTICAL COMPOSITION COMPRISING EXTRACT OF LONICERA JAPONICA FOR PREVENTION AND TREATMENT OF GASTROESOPHAGEAL REFLUX DISEASE” (priority 2010, published 2013):

Tests used:
[1] = tested on: Sialic acid of esophagus mucous membrane; test: Amount of sialic acid in esophagus tissue; type: in vivo, rat; details: esophagus tissue of reflux rats; for Sialic acid: 10 mg/kg, normal group 125.2, control group 95.2; for content of sialic acid compared to that of a control group: doses as in Table 3
Method: (§1) On the Lonicerae Flos extract, the Lonicerae Flos fraction, or a compound isolated from the fraction (3,5-di-O-caffeoylquinic acid or 4,5-di-O-caffeoylquinic acid), having a therapeutic effect in a rat model of gastroesophageal reflux disease, the amounts of Hexosamine and Sialic acid constituting esophagus mucous membrane of esophagus tissue were measured.
Esophagus tissues of all test groups, obtained from <Experimental Example 1>, were immersed in ethanol, and then left in acetone for 2 days, and in ether for 1 day, followed by cleaning and drying. The test sample was weighed, added with 5 ml of 0.1N H2SO4 solution, and hydrolyzed by being heated at 80° C. for 1 hour. Then, the resultant product was cooled at room temperature, and filtered. 0.2 ml of filtrate was mixed with 0.1 ml of 0.2M periodate solution, and left at room temperature for 20 minutes. Then, the resultant solution was mixed with 1 ml of 10% arsenite solution until a yellowish brown color disappeared. 3 ml of 0.6% TBA solution was added thereto, followed by mixing. The resultant product was covered with a cap, and heated at 100° C. for 15 minutes, cooled, and left in a cool bath for 5 minutes, followed by cen- trifugation at 3,000 rpm for 10 minutes. A supernatant was collected, and its absorbency was measured at 549nm. From a calibration curve obtained by using N-acetylneuraminic acid, the content of Sialic acid was calculated.

TNF-α = test: TNF-alpha level in esophagus tissue (ELISA), anti-inflammatory effect; type: in vivo, rat; details: 10 mg/kg; for inflammation inhibition ratio: calculated from TNF-alpha of test, control and normal groups; for TNF-alpha: esophagus tissue of reflux rats, normal group 120.3, control group 325.2
Method: On the Lonicerae Flos extract, the Lonicerae Flos fraction, or a compound isolated from the fraction (3,5-di-O-caffeoylquinic acid or 4,5-di-O-caffeoylquinic acid), having a therapeutic effect in a rat model of gastroesophageal reflux disease, in order to measure an anti-inflammatory effect within esophagus tissue, a level of Tumor necrosis factor-alpha(TNF-α) playing an important role in inflammatory disease mechanism was measured within esophagus tissue of a rat (Nippon Rinsho, 68(5), 819-822, 2010). As a kit for this measurement, rat TNF-α ELISA kit (Cat No:88-7340, eBioscience) was used. Each of esophagus tissues of all test groups, obtained from <Experimental Example 1>was introduced into homogenizing buffer (10×)(pH 7.4: 1.15% KCl, 50 mM Tris-HCl, 1 mM EDTA), followed by grinding by a homogenizer. Then, after centrifugation at 3,000 rpm or more for 10 minutes, the homogenized tissue liquid (supernatant) was separated, and then stored in a deep freezer for the use in the experiment. After all antigen-antibody reactions were completed, the absorbency was measured by ELISA Reader (BIORAD) at 450 nm, and then the amount of TNF-α in esophagus tissue was expressed by using a reference curve of absorbency. The inflammation inhibition ratio (%) of a test material was calculated by the following equation. Also, the anti-inflammatory effect by the Lonicerae Flos extract in a rat model of gastroesophageal reflux disease is noted in Table 2.
Inflammation inhibition ratio (%)=1−((test group-normal group)/(control group-normal group))×100

[2] = tested on: Hexosamine of esophagus mucous membrane; test: Amount of hexosamine in esophagus tissue; type: in vivo, rat; details: esophagus tissue of reflux rats; for Hexosamine: 10 mg/kg, normal group 1101.3, control group 925.3; for content of hexosamine compared to that of a control group: doses as in Table 3
Method: as §1
Esophagus tissues of all test groups, obtained from <Experimental Example 1>, were immersed in ethanol, and then left in acetone for 2 days, and in ether for 1 day, followed by cleaning and drying. The test sample was weighed, added with 5 ml of 4N HCl solution, and hydrolyzed by being heated at 100° C. for 9 hours. Then, the resultant product was cooled at room temperature, and filtered. 0.5 ml of filtrate was added with 0.5 ml of 4N NaOH solution for neutralization, and then added with 1 ml of acetylacetone solution, followed by shaking. Then, the resultant product was heated at 100° C. for 20 minutes, and cooled, and then added with 5 ml of isoamylalcohol, followed by shaking for 2 minutes. After centrifugation at 3,000 rpm for 10 minutes, 2 ml of supernatant was collected. The supernatant was added with 0.5 ml of a color agent, and left for 15 minutes, and then its absorbency was measured at 530 nm. From a calibration curve obtained by using Glucosamine, the content of hexosamine was calculated.

[3] = tested on: rat model of gastroesophageal reflux disease; test: Effect on esophagus lesion in rat model of gastroesophageal reflux disease; type: in vivo; details: 10 mg/kg oral in 0.5% CMC, 1 h before reflux induction; esophagus examined 6 h after operation; SD male rats
Source text: In order to determine the therapeutic effect on acute/chronic gastroesophageal reflux disease by the inventive Lonicerae Flos fraction or the compound represented by Formula 1 or 2, the method for measuring the therapeutic effect on gastroesophageal reflux disease (Nakamura K et al; Jpn. J. Pharmacol., 32(3), 445-456, 1982: Okabe S, et al; Jpn. J. Pharmacol., 69(4), 317-323, 1995) was applied to the present experiments.
In order to determine the therapeutic effect of the inventive Lonicerae Flos extract, the inventive Lonicerae Flos fraction, or the compound represented by Formula 1 or 2 in a rat model of gastroesophageal reflux disease, Spraugue-Dawley(SD)-based male rats aged 7 weeks were fasted for 24 hours and supplied with water in a sufficient amount. The rats were weighed, and were orally administered with omeprazole (Sigma-Aldrich) as a control drug and with Lonicerae Flos extract/fraction as a test drug, which are suspended in a 0.5% CMC (Carboxymethyl cellulose) solution, one hour before induction of reflux. For reflux induction, the abdomen of the rat was opened, and a pylorus region between stomach and duodenum was ligated. Then, a stomach-esophagus sphincter between esophagus and stomach was injured by longitudinal incision of 1 cm so that gastric acid can be flowed backward due to abnormal relaxation of the sphincter. Also, a transition zone between forestomach and glandular portion was ligated by thread, and the abdomen was sutured by cotton thread. 6 hours after the completion of the operation, inhalation anesthesia was performed, and the esophagus was extracted. Then, the size of an esophagus lesion and the extent of esophagitis were observed. In Table 1, the esophagus lesion inhibition ratio (%) of a test group administered with the inventive test material, with respect to a control group, is noted.

[4] = tested on: lipid peroxidation of esophagus tissue; test: Lipid peroxide (malondialdehyde) of esophagus tissue in rat model of gastroesophageal reflux disease; type: in vivo; details: esophagus mucous membrane from Experimental Example 1 (10 mg/kg oral); malondialdehyde by TBA, 532 nm
Method: A test for finding out the inhibition of lipid peroxidation by the inventive Lonicerae Flos extract, the inventive Lonicerae Flos fraction, or a compound isolated from the fraction (3,5-di-O-caffeoylquinic acid or 4,5-di-O-caffeoylquinic acid) was carried out. the esophagus mucous membrane extracted in Experimental Example 1 was taken out, and added in 1 ml of tris-hydrochloric acid buffer solution (pH 7.0), followed by ultrasonic grinding. After centrifugation (600×g, 4° C.) for 5 minutes, 0.3 ml of supernatant was added with 0.9 ml of trichloroacetic acid (8%). Then, after centrifugation (10,000×g, 4° C.) for 5 minutes, 1 ml of supernatant was added with 0.25 ml of TBA(1%), and then with 2 ml of n-butanol. Then, after centrifugation (3,000×g , 4° C.) for 5 minutes, on 1 ml of butanol fraction, the absorbency was measured at 532 nm. As a reference material, malonaldehyde bis-dimethyl acetal was used. The result was expressed as nmol/mg protein, and protein quantitative analysis was carried out by Bradford assay.

[5] = tested on: SPF SD-based female/male rats; test: Toxicity test of acute oral administration; type: in vivo; details: single oral dose 1.0 g/kg or 2.0 g/kg in 0.5% CMC; 5 female and 5 male SD rats; autopsy after 7 days; safe up to 2.0 g/kg
Method: By applying the Lonicerae Flos extract of Example 1, fractions of Examples 4 and 5, and 3,5-di-O-caffeoylquinic acid and 4,5-di-O-caffeoylquinic acid from Example 6, to SPF (specific pathogen free) SD-based female/male rats aged 6 weeks, an acute toxicity test was carried out.
Female 5 rats and male 5 rats of each test group were orally administered with the test materials from Examples in a dose of 1.0 g/kg or 2.0 g/kg. The test materials were suspended in 0.5% CMC (Carboxymethyl cellulose) solution before the administration. When the test materials were administered, mortality, clinical symptoms, and weight changes of animals were observed. 7 days after the administration, through autopsy, a hematologic examination and a blood chemical test were carried out. Then, with the naked eye, it was observed if there was abnormality in abdominal cavity organs and thoracic cage organs. […] Also, through weight measurement, a blood test, a blood chemical test, and autopsy results, an abnormal change was not observed.

SMILES | Sialic acid [1] [μg/100 mg dry tissue] | content of sialic acid compared to that of a control group [1] | inflammation inhibition ratio (TNF-α) [%] | TNF-alpha (TNF-α) [pg/mg Tissue weight] | Hexosamine [2] [μg/100 mg dry tissue] | content of hexosamine compared to that of a control group [2] | esophagus lesion inhibition ratio with respect to control group [3] [%] | lipid peroxidation inhibiting ratio [4] [%] | acute oral toxicity (mortality, clinical symptoms, weight changes, blood tests, autopsy) [5]
O=C(/C=C/c1ccc(O)c(O)c1)O[C@H]1[C@H](O)C[C@](O)(C(=O)O)C[C@H]1OC(=O)/C=C/c1ccc(O)c(O)c1 [4,5-di-CQA, 4,5-di-O-caffeoylquinic acid] | 148.1 | significantly increased | 85.5 | 150.1 | 1380.2 | significantly increased | 81 | 50.2 | 
O=C(/C=C/c1ccc(O)c(O)c1)OC1CC(O)(C(=O)O)CC(OC(=O)/C=C/c2ccc(O)c(O)c2)C1O (centres unmarked) [3,5-di-CQA, 3,5-di-O-caffeoylquinic acid] | 155.3 | significantly increased | 87.8 | 145.3 | 1445.2 | significantly increased | 90 | 49.1 | not showing toxicity
COc1ccc2[nH]c([S+]([O-])Cc3ncc(C)c(OC)c3C)nc2c1 (centres unmarked) [omeprazole, reference compound] | 132.2 |  | 80.5 | 160.2 | 1176.3 |  | 83 | 53.9 | 
